Reference: US20080039430A1, “Pharmaceutical Compositions For The Treatment Of Leishmaniasis” (priority 2004, published 2008)

How the values were obtained:
[1] = test system: L. infantum promastigotes; test: Growth of promastigotes in axenic culture, viable parasites by FACs analysis; format: cell-based
Protocol: (§1) The growth of Leishmania amastigotes and promastigotes was followed in axenic culture conditions in the presence or absence of NAm.
(§2) A cloned line of L. infantum (MHOM/MA/67/ITMAP-263) was used in all experiments. Each subculture was initiated at 5×10^5 parasites/ml of medium. Axenically grown amastigote forms of L. infantum were maintained at 37° C. with 5% CO2 by weekly subpassages in a cell-free medium called MAA/20 (medium for axenically grown amastigotes) in 25-ml flasks, as previously described (10). Promastigote forms were maintained at 26° C. by weekly subpassage in SDM 79 medium supplemented with 10% foetal calf serum (FCS) and 100 units/ml penicillin and 100 μg/ml streptomycin. Nicotinamide (SIGMA, St Louis) was added at the appropriate concentration and the mean number of viable parasites determined using FACs analysis, as previously described (11).

[2] = test system: L. infantum axenic amastigotes; test: Growth of axenically grown amastigotes, viable parasites by FACs analysis; format: cell-based
Protocol: as §1, §2

[3] = test system: L. amazonsensis amastigotes; test: Growth inhibition of L. amazonsensis amastigotes; format: cell-based
[4] = test system: axenic amastigote; test: YOPRO-1 positive (apoptotic) axenic amastigotes; format: cell-based, L. infantum
Protocol: After 24, 48 and 72 hours of incubation aliquots (10^6 parasites) were collected, washed and incubated for 10 min with 10 μM of YO[…], an apoptotic cell marker (Molecular probes). The mean percentage of YO[…] positive cells was determined as previously described (9).

[5] = test system: THP-1 monocytes; test: Growth and viability of THP-1 monocytes; format: cell-based; conditions: 3 days
Protocol: In a first series of experiments, THP-1 monocytes were incubated during 3 days with various concentrations of NAm and the growth and viability of cells were recorded. Up to 10 mM of NAm, no effect on cell growth and viability was observed. In contrast, 20 mM NAm inhibited the proliferation of THP-1 monocyte by about 45% in agreement with the values recorded for other cell types: SupT1 and PBLs cells (6).

[6] = test system: intracellular amastigote; test: Intracellular amastigote proliferation in THP-1 differentiated macrophages, parasitic index; format: cell-based, Leishmania infantum; conditions: for IC50: Leishmania infantum, THP-1, read-out: IC50, intracellular growth of Leishmania infantum
Protocol: Thus, THP-1 differentiated macrophages were infected with stationary phase amastigotes at a host cell-parasite ratio of 5:1. After 4 hours, non adherent parasites were removed and nicotinamide was added to the medium at the appropriate concentration. After 3 days of incubation time, cells were fixed with methanol and stained with giemsa. Parasitic index PI (mean percentage of infected macrophages X number of amastigotes per macrophage) was determined. […] At this concentration a reduction of almost 70% of PI was observed.

[7] = target: T1, SIRT1 (Homo sapiens, UniProt Q96EB6); test: NAD-dependent deacetylase activity, cyclex SIR2 assay kit with SIRT1; format: biochemical
T1 construct: purchased MBL, Japan
T1 sequence (Q96EB6 1-747): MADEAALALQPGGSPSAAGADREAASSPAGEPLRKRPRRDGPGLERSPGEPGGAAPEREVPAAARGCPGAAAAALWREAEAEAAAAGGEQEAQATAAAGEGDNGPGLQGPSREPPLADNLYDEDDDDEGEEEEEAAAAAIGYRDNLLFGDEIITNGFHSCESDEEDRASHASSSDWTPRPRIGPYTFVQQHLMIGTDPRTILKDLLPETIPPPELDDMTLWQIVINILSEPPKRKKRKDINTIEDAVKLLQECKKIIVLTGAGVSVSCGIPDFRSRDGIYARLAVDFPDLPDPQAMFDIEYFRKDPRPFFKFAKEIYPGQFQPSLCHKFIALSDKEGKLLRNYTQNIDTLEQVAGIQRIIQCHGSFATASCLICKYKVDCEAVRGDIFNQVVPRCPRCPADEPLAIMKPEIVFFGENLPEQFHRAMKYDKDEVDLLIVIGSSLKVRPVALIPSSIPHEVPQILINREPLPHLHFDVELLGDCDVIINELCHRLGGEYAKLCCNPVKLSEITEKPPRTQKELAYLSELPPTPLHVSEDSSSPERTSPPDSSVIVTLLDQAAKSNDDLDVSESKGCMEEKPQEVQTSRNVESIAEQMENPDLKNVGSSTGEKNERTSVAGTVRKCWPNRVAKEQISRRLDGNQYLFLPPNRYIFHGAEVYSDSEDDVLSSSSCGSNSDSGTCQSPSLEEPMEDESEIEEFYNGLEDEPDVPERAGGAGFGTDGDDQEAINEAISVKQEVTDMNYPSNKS
Protocol: Therefore, complementary experiments were conducted in order to examine whether NAm could interfere with Leishmania deacetylase activity in vitro. To test this possibility, a commercially available “[…] SIR2 assay kit” and SIRT1 as a standard enzyme (MBL, Japan) were used.

[8] = target: T2, LmSIR2 (Leishmania major, UniProt Q25337); test: NAD-dependent deacetylase activity in Leishmania extracts (pTEX-LmSIR2); format: biochemical; conditions: 5 mM NAm, 200 μM NAD
T2 construct: expressed in transfected cells; host or cells: Leishmania infantum (MHOM/MA/67/ITMAP-263) carrying pTEX-LmSIR2; NP40 lysate
Protocol: Having established a standard inhibitory assay, the effect of NAm was then examined on the NAD-dependent deacetylase activity contained in Leishmania extracts from mutant parasites carrying extra copies of LmSIR2 gene (pTEX-LmSIR2) or empty plasmid DNA (pTEX) (11).
Briefly, 2 10^5 parasites were collected and washed two times with PBS 0.01M pH 7.2 and incubated in a lysis solution (100 mM Tris-HCl, 150 mM NaCl, 1 mM EDTA, 1% NP40, 5 μM Trichostatin A, pH 8.8), cells were then centrifuged for 20 min at 10 000 rpm at 4° C. Deacetylase activity in the presence or absence of 200 μM NAD was measured. Results are expressed as relative F355/F460 counts=F355/F460 counts in the presence of NAD—F355/F460 counts in the absence of NAD. This allowed to discriminate between fluorescence due to the action of LmSIR2 to fluorescence due to the presence of compounds which could interfere with the test.

[9] = test system: L. infantum amastigotes which overexpress LmSIR2; test: NAm-induced death of amastigotes overexpressing LmSIR2; format: cell-based; conditions: FIGS. 3A and 3B, growth inhibition and YOPRO-1 positive cells
Protocol: To further examine the possible correlation between the level of SIR2 expression and the sensitivity/resistance to NAm-induced Leishmania amastigotes death, NAm was added to cultures of mutant L. infantum amastigotes which overexpress LmSIR2 or carrying the empty pTEX plasmid as controls.

[10] = patient treated with accelerated radiotherapy for head and Neck cancer; cited from earlier work
[11] = test system: Leishmania parasites; conditions: compared with NAm

T2 sequence (Q25337 whole entry): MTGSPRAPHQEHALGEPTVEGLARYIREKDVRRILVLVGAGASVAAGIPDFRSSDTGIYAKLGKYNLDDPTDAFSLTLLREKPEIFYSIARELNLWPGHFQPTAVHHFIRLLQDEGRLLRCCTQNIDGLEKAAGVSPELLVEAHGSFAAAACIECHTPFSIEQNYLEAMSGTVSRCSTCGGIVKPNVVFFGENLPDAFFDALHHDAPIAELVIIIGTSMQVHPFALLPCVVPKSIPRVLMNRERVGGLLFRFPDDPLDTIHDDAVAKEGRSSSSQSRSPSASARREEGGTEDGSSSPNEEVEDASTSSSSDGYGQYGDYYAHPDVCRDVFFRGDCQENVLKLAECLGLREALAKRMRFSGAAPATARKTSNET

Row | SMILES | growth of promastigotes ([1]; 20 mM NAm) | proliferation of promastigotes ([1]; FIG. 1A, 10 mM or 20 mM NAm) | capacity of axenic amastigotes to proliferate ([2]; 20 mM NAm) | proliferation of amastigotes ([2]; FIG. 1B, 10 mM or 20 mM NAm) | growth inhibitory activity on L. amazonsensis amastigotes [3] | leishmanicidal effect, YOPRO-1 positive cells ([4]; 100 mM NAm, after 3 days of culture (FIG. 1C)) | leishmanicidal activity, occurrence of YOPRO-1 positive cells ([4]; concentrations higher than 25 mM, 24, 48 and 72 hours) | inhibition at 20000 µM ([5]; Homo sapiens, THP-1, 72 h, 20 mM NAm, read-out: inhibition of proliferation of THP-1 monocyte) | effect on cell growth and viability of THP-1 monocytes ([5]; up to 10 mM NAm) | inhibition of intracellular amastigote proliferation ([6]; 2.5 mM NAm, vs control non treated cultures, p<0.05) | reduction of parasitic index (PI) ([6]; 10 mM NAm, 3 days, THP-1 differentiated macrophages (maximal activity)) | IC50 [6] | effect on enzymatic (deacetylase) activity of SIRT1 ([7]; 5 mM) | effect on enzymatic (deacetylase) activity of SIRT1 ([7]; 20 mM) | NAD dependent deacetylase activity in parasites overexpressing LmSIR2 [8] | resistance to NAm-induced death from extra copies of LmSIR2 [9] | plasmatic concentration achievable [10] | growth inhibitory activity towards Leishmania parasites [11]
1 | NC(=O)c1cccnc1 [NAm, nicotinamide] | a delay in the growth | strongly inhibited | virtually completely abrogated | strongly inhibited | sensitive | Maximal effect | strong dose-dependent leishmanicidal activity | ~45% | no effect | significantly inhibit | ~70% | < 2500 µM | almost completely abrogated | almost completely abrogated | significantly inhibited | did not confer significant resistance | 0.7 to 2.3 mM | –
2 | O=C(O)c1cccnc1 [NicotAc, nicotinic acid] | – | – | – | – | – | – | – | – | – | – | – | < 2500 µM | no significant effect | – | – | – | – | exerted a growth inhibitory activity towards Leishmania parasites, although at higher concentrations
